Reference: ChEMBL document CHEMBL3769371, “1-[(2E)-3-Phenylprop-2-enoyl]-1H-benzimidazoles as anticancer agents: synthesis, crystal structure analysis and binding studies of the most potent anticancer molecule with serum albumin” (Medchemcomm, 2015)

Key:
[1] = Cytotoxicity against human COLO205 cells after 48 hrs by SRB assay; format: functional; settings: COLO 205, 48 h
Albumin [2] = target: T1, Albumin (Homo sapiens, UniProt P02768); assay: Binding affinity to human serum albumin at 0.25 uM at 303 K by fluorescence microscopic analysis in the presence of Co2+; format: ADME; settings: isolated protein
T1 sequence (P02768 whole entry): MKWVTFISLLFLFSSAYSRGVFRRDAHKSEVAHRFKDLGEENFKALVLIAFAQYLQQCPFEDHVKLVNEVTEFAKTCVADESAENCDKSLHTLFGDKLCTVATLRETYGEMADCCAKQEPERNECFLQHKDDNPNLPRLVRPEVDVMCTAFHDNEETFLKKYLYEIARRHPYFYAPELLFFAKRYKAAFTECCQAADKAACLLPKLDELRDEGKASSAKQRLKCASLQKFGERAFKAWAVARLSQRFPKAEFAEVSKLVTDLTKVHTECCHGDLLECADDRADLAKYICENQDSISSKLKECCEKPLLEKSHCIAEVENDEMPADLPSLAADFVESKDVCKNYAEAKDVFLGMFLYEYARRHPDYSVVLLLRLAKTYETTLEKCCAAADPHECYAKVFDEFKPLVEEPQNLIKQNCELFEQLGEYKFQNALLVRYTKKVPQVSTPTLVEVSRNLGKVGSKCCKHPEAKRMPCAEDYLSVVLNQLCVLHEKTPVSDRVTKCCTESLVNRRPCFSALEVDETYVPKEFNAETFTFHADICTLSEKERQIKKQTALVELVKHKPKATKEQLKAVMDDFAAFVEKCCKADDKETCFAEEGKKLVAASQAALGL

A498 = assay: Cytotoxicity against human A498 cells after 48 hrs by SRB assay; format: functional; settings: A498, 48 h
[3] = Cytotoxicity against human SKOV3 cells after 48 hrs by SRB assay; format: functional; settings: SK-OV-3, 48 h
[4] = Cytotoxicity against human BT549 cells assessed as cell growth at 10^-5 M after 48 hrs by SRB assay; format: functional; settings: BT-549, 48 h, read-out: Activity
[5] = Cytotoxicity against human OVCAR8 cells assessed as cell growth at 10^-5 M after 48 hrs by SRB assay; format: functional; settings: OVCAR-8, 48 h, read-out: Activity
[6] = Cytotoxicity against human SF295 cells after 48 hrs by SRB assay; format: functional; settings: SF-295, 48 h
ACHN = assay: Cytotoxicity against human ACHN cells after 48 hrs by SRB assay; format: functional
Albumin [7] = target: T1, Albumin; assay: Binding affinity to human serum albumin at 0.25 to 2 uM at 303 K by fluorescence microscopic analysis in the presence of phenylbutazone; format: ADME; settings: isolated protein
U-251 = assay: Cytotoxicity against human U251 cells assessed as cell growth at 10^-5 M after 48 hrs by SRB assay; format: functional; settings: U-251, 48 h, read-out: Activity
NCI-H23 = assay: Cytotoxicity against human NCI-H23 cells assessed as cell growth at 10^-5 M after 48 hrs by SRB assay; format: functional; settings: NCI-H23, 48 h, read-out: Activity
[8] = Cytotoxicity against human SF268 cells after 48 hrs by SRB assay; format: functional; settings: SF-268, 48 h
NCI-H522 = assay: Cytotoxicity against human NCI-H522 cells after 48 hrs by SRB assay; format: functional; settings: NCI-H522, 48 h
SK-MEL-28 = assay: Cytotoxicity against human SK-MEL-28 cells after 48 hrs by SRB assay; format: functional; settings: SK-MEL-28, 48 h
[9] = Cytotoxicity against human PC3 cells after 48 hrs by SRB assay; format: functional; settings: PC-3, 48 h
CCRF-CEM = assay: Cytotoxicity against human CCRF-CEM cells after 48 hrs by SRB assay; format: functional
M14 = assay: Cytotoxicity against human M14 cells assessed as cell growth at 10^-5 M after 48 hrs by SRB assay; format: functional; settings: M14, 48 h, read-out: Activity
[10] = Cytotoxicity against human SNB19 cells after 48 hrs by SRB assay; format: functional; settings: SNB-19, 48 h
[11] = Cytotoxicity against human OVCAR5 cells assessed as cell growth at 10^-5 M after 48 hrs by SRB assay; format: functional; settings: OVCAR-5, 48 h, read-out: Activity
MDA-MB-231 = assay: Cytotoxicity against human MDA-MB-231 cells assessed as cell growth at 10^-5 M after 48 hrs by SRB assay; format: functional; settings: MDA-MB-231, 48 h, read-out: Activity
Albumin [12] = target: T1, Albumin; assay: Binding affinity to human serum albumin at 0.25 to 2 uM at 298 K by fluorescence microscopic analysis; format: ADME; settings: isolated protein
SK-MEL-5 = assay: Cytotoxicity against human SK-MEL-5 cells assessed as cell growth at 10^-5 M after 48 hrs by SRB assay; format: functional; settings: SK-MEL-5, 48 h, read-out: Activity
NCI-H226 = assay: Cytotoxicity against human NCI-H226 cells assessed as cell growth at 10^-5 M after 48 hrs by SRB assay; format: functional; settings: NCI-H226, 48 h, read-out: Activity
[13] = Cytotoxicity against human TK10 cells after 48 hrs by SRB assay; format: functional; settings: TK-10, 48 h
Albumin [14] = target: T1, Albumin; assay: Binding affinity to human serum albumin at 0.25 to 2 uM at 288 K by fluorescence microscopic analysis; format: ADME; settings: isolated protein
[15] = Cytotoxicity against human BT549 cells after 48 hrs by SRB assay; format: functional; settings: BT-549, 48 h
[16] = Cytotoxicity against human Hs 578T cells assessed as cell growth at 10^-5 M after 48 hrs by SRB assay; format: functional; settings: read-out: Activity
[17] = Cytotoxicity against human LOXIMVI cells after 48 hrs by SRB assay; format: functional; settings: LOX IMVI
[18] = Cytotoxicity against human HL-60(TB) cells assessed as cell growth at 10^-5 M after 48 hrs by SRB assay; format: functional; settings: HL-60, 48 h, read-out: Activity
[19] = Cytotoxicity against human UACC257 cells assessed as cell growth at 10^-5 M after 48 hrs by SRB assay; format: functional; settings: UACC-257, 48 h, read-out: Activity
Albumin [20] = target: T1, Albumin; assay: Binding affinity to human serum albumin assessed Stern-Volmer quenching constant at 0.25 to 2 uM at 308 K by fluorescence microscopic analysis; format: ADME; settings: isolated protein
Albumin [21] = target: T1, Albumin; assay: Binding affinity to human serum albumin at 0.25 uM at 303 K by fluorescence microscopic analysis in the presence of Mn2+; format: ADME; settings: isolated protein
T47D = assay: Cytotoxicity against human T47D cells assessed as cell growth at 10^-5 M after 48 hrs by SRB assay; format: functional; settings: read-out: Activity
[22] = Cytotoxicity against human RXF393 cells assessed as cell growth at 10^-5 M after 48 hrs by SRB assay; format: functional; settings: RXF 393, 48 h, read-out: Activity
[23] = Cytotoxicity against human HCT15 cells after 48 hrs by SRB assay; format: functional; settings: HCT-15, 48 h
SN12C = assay: Cytotoxicity against human SN12C cells after 48 hrs by SRB assay; format: functional
[24] = Cytotoxicity against human OVCAR4 cells after 48 hrs by SRB assay; format: functional; settings: OVCAR-4, 48 h
[25] = read-out: LC50 (the source's name)

O=C(/C=C/c1ccccc1)n1c(-c2ccc(Cl)cc2)nc2ccccc21
GI50 [1]: 1.23 µM
TGI [1]: 2.64 µM
CC50 [1, 25]: 5.65 µM
K (Albumin [2]): 4.09 ×10³ /mol
GI50 (A498): 2.05 µM
TGI (A498): 7.63 µM
CC50 (A498; [25]): 28.4 µM
GI50 [3]: 1.49 µM
TGI [3]: 61.3 µM
CC50 [3, 25]: > 100 µM
growth at 10 µM [4]: -50.5%
growth at 10 µM [5]: -31.3%
GI50 [6]: 2.1 µM
TGI [6]: 6.14 µM
CC50 [6, 25]: 42.5 µM
GI50 (ACHN): 1.17 µM
TGI (ACHN): 2.56 µM
CC50 (ACHN; [25]): 5.62 µM
K (Albumin [7]): 3.5 ×10³ /M
growth at 10 µM (U-251): -0.39%
growth at 10 µM (NCI-H23): -24.5%
GI50 [8]: 1.45 µM
TGI [8]: 5.03 µM
CC50 [8, 25]: 27.9 µM
GI50 (NCI-H522): 1.53 µM
TGI (NCI-H522): 3.5 µM
CC50 (NCI-H522; [25]): 8.04 µM
GI50 (SK-MEL-28): 2.1 µM
TGI (SK-MEL-28): 4.35 µM
CC50 (SK-MEL-28; [25]): 9.02 µM
GI50 [9]: 1.91 µM
TGI [9]: 6.73 µM
CC50 [9, 25]: 36.3 µM
GI50 (CCRF-CEM): 0.73 µM
TGI (CCRF-CEM): 3.45 µM
CC50 (CCRF-CEM; [25]): > 100 µM
growth at 10 µM (M14): -37.3%
GI50 [10]: 1.47 µM
TGI [10]: 2.92 µM
CC50 [10, 25]: 5.79 µM
growth at 10 µM [11]: -48.1%
growth at 10 µM (MDA-MB-231): -26.5%
K (Albumin [12]): 3.2 ×10⁴ /mol
growth at 10 µM (SK-MEL-5): -70.6%
growth at 10 µM (NCI-H226): -55.3%
GI50 [13]: 2.35 µM
TGI [13]: 7.93 µM
CC50 [13, 25]: 28 µM
K (Albumin [14]): 2.24 ×10⁵ /mol
GI50 [15]: 1.67 µM
TGI [15]: 3.22 µM
CC50 [15, 25]: 6.18 µM
growth at 10 µM [16]: 20%
GI50 [17]: 1.6 µM
TGI [17]: 3.22 µM
CC50 [17, 25]: 6.5 µM
growth at 10 µM [18]: -3.97%
growth at 10 µM [19]: -64.4%
KSV (Albumin [20]): 1.14 ×10⁵ L/mol
K (Albumin [21]): 3.85 ×10³ /mol
growth at 10 µM (T47D): -4.25%
growth at 10 µM [22]: -65.2%
GI50 [23]: 1.21 µM
TGI [23]: 2.88 µM
CC50 [23, 25]: 6.9 µM
GI50 (SN12C): 1.39 µM
TGI (SN12C): 2.76 µM
CC50 (SN12C; [25]): 5.46 µM
GI50 [24]: 1.11 µM
TGI [24]: 2.64 µM
CC50 [24, 25]: 6.29 µM
